Laboratory results taken from US10308650B2, “Pesticidally active tetracyclic derivatives with sulfur containing substituents” (Syngenta Participations AG, priority 2014, dated 2019).

Legend:
Format in all cases: in vivo
[1] = tested on: Euschistus heros (Neotropical Brown Stink Bug); assay: Activity against Euschistus heros; settings: 120 h, application rate of 200 ppm, soybean leaves, N2 nymphs, 5 days after infestation, read-out: effect in at least one of the two categories (mortality or growth inhibition)
Procedure: Example B3: Activity Against Euschistus heros (Neotropical Brown Stink Bug)
Soybean leaves on agar in 24-well microtiter plates were sprayed with aqueous test solutions prepared from 10,000 ppm DMSO stock solutions. After drying the leaves were infested with N2 nymphs. The samples were assessed for mortality and growth inhibition in comparison to untreated samples 5 days after infestation.

[2] = tested on: Bemisia tabaci (Cotton White Fly); assay: Activity against Bemisia tabaci: feeding/contact activity; settings: foliar, 144 h, application rate of 200 ppm, cotton leaf discs, adult white flies, 6 days after incubation
Procedure: Example B1: Activity Against Bemisia tabaci (Cotton White Fly): Feeding/Contact Activity
Cotton leaf discs were placed on agar in 24-well microtiter plates and sprayed with aqueous test solutions prepared from 10,000 ppm DMSO stock solutions. After drying the leaf discs were infested with adult white flies. The samples were checked for mortality 6 days after incubation.

[3] = tested on: Myzus persicae (Green Peach Aphid); assay: Activity against Myzus persicae: feeding/contact activity; settings: foliar, 144 h, application rate of 200 ppm, sunflower leaf discs, aphid population of mixed ages, 6 days after infestation, read-out: mortality
Procedure: Example B5: Activity Against Myzus persicae (Green Peach Aphid): Feeding/Contact Activity
(§1) Sunflower leaf discs were placed onto agar in a 24-well microtiter plate and sprayed with aqueous test solutions prepared from 10,000 ppm DMSO stock solutions. After drying, the leaf discs were infested with an aphid population of mixed ages. The samples were assessed for mortality 6 days after infestation.

[4] = tested on: Thrips tabaci (Onion Thrips); assay: Activity against Thrips tabaci: feeding/contact activity; settings: foliar, 144 h, application rate of 200 ppm, sunflower leaf discs, thrips population of mixed ages, 6 days after infestation
Procedure: Example B12: Activity Against Thrips tabaci (Onion Thrips) Feeding/Contact Activity
as §1, with “on” for “onto”, “in” for “in a”, “plates” for “plate”, “drying” for “drying,”, “a thrips” for “an aphid”

[5] = tested on: Diabrotica balteata (Corn Root Worm); assay: Activity against Diabrotica balteata; settings: 96 h, application rate of 200 ppm, maize sprouts, L2 larvae, 4 days after infestation, read-out: effect in at least one of the two categories (mortality or growth inhibition)
Procedure: Example B2: Activity Against Diabrotica balteata (Corn Root Worm)
Maize sprouts placed onto an agar layer in 24-well microtiter plates were treated with aqueous test solutions prepared from 10,000 ppm DMSO stock solutions by spraying. After drying, the plates were infested with L2 larvae (6 to 10 per well). The samples were assessed for mortality and growth inhibition in comparison to untreated samples 4 days after infestation.

[6] = tested on: Spodoptera littoralis (Egyptian Cotton Leaf Worm); assay: Activity against Spodoptera littoralis (cotton leaf discs, spray); settings: foliar, 72 h, application rate of 200 ppm, cotton leaf discs, L1 larvae, 3 days after infestation, read-out: control (mortality, anti-feeding effect, growth inhibition)
Procedure: Example B9: Activity Against Spodoptera littoralis (Egyptian Cotton Leaf Worm)
Cotton leaf discs were placed onto agar in 24-well microtiter plates and sprayed with aqueous test solutions prepared from 10,000 ppm DMSO stock solutions. After drying the leaf discs were infested with five L1 larvae. The samples were assessed for mortality, anti-feeding effect, and growth inhibition in comparison to untreated samples 3 days after infestation. Control of Spodoptera littoralis by a test sample is given when at least one of the categories mortality, anti-feedant effect, and growth inhibition is higher than the untreated sample.

[7] = tested on: Myzus persicae (Green Peach Aphid); assay: Activity against Myzus persicae: systemic activity; settings: 144 h, test rate of 24 ppm, roots of infested pea seedlings in test solution, 6 days, read-out: mortality
Procedure: Example B6: Activity Against Myzus persicae (Green Peach Aphid). Systemic Activity
Roots of pea seedlings infested with an aphid population of mixed ages were placed directly into aqueous test solutions prepared from 10,000 DMSO stock solutions. The samples were assessed for mortality 6 days after placing seedlings into test solutions.

[8] = tested on: Spodoptera littoralis (Egyptian Cotton Leaf Worm); assay: Activity against Spodoptera littoralis (lettuce, uptake by the roots from agar); settings: 144 h, test rate of 12.5 ppm, lettuce grown on treated agar, Spodoptera eggs, 6 days after infestation, read-out: effect in at least one of the three categories (mortality, anti-feeding, or growth inhibition)
Excerpt: Example B10: Activity Against Spodoptera littoralis (Egyptian Cotton Leaf Worm)
Test compounds were applied by pipette from 10,000 ppm DMSO stock solutions into 24-well plates and mixed with agar. Lettuce seeds were placed onto the agar and the multi well plate was closed by another plate which contained also agar. After 7 days the compound was absorbed by the roots and the lettuce grew into the lid plate. The lettuce leaves were then cut off into the lid plate. Spodoptera eggs were pipetted through a plastic stencil onto a humid gel blotting paper and the lid plate was closed with it. The samples were assessed for mortality, anti-feedant effect and growth inhibition in comparison to untreated samples 6 days after infestation.

[9] = tested on: Plutella xylostella (Diamond Back Moth); assay: Activity against Plutella xylostella; settings: 120 h, application rate of 200 ppm, artificial diet, L2 larvae, 5 days after infestation, read-out: effect in at least one of the two categories (mortality or growth inhibition)
Procedure: Example B8: Activity Against Plutella xylostella (Diamond Back Moth)
24-well microtiter plates with artificial diet were treated with aqueous test solutions prepared from 10,000 ppm DMSO stock solutions by pipetting. After drying, the plates were infested with L2 larvae (10 to 15 per well). The samples were assessed for mortality and growth inhibition in comparison to untreated samples 5 days after infestation.

[10] = tested on: Frankliniella occidentalis (Western Flower Thrips); assay: Activity against Frankliniella occidentalis: feeding/contact activity; settings: foliar, 168 h, application rate of 200 ppm, sunflower leaf discs, population of mixed ages, 7 days after infestation
Procedure: Example B4: Activity Against Frankliniella occidentalis (Western Flower Thrips): Feeding/Contact Activity
Sunflower leaf discs were placed on agar in 24-well microtiter plates and sprayed with aqueous test solutions prepared from 10,000 DMSO stock solutions. After drying the leaf discs were infested with a Frankliniella population of mixed ages. The samples were assessed for mortality 7 days after infestation.

[11] = tested on: Aedes aegypti (Yellow Fever Mosquito); assay: Activity against Aedes aegypti; settings: 200 ppm in ethanol, dry deposit in 12 well plates, adult females, after 48 h and/or 24 h
Procedure: Example B13: Activity Against Aedes aegypti (Yellow Fever Mosquito)
Test solutions, at an application rate of 200 ppm in ethanol, were applied to 12 well tissue culture plates. Once the deposits were dry, five, two to five day old adult female Aedes aegypti were added to each well, and sustained with a 10% sucrose solution in a cotton wool plug. Assessment of knockdown was made one hour after introduction, and mortality was assessed at 24 and 48 hours after introduction.

[12] = tested on: Tetranychus urticae (Two-Spotted Spider Mite); assay: Activity against Tetranychus urticae: feeding/contact activity; settings: foliar, 192 h, application rate of 200 ppm, bean leaf discs, mixed population (mobile stages), 8 days after infestation
Procedure: Example B11: Activity Against Tetranychus urticae (Two-Spotted Spider Mite): Feeding/Contact Activity
Bean leaf discs on agar in 24-well microtiter plates were sprayed with aqueous test solutions prepared from 10,000 ppm DMSO stock solutions. After drying the leaf discs were infested with a mite population of mixed ages. The samples were assessed for mortality on mixed population (mobile stages) 8 days after infestation.

[13] = tested on: Myzus persicae (Green Peach Aphid); assay: Activity against Myzus persicae: intrinsic activity; settings: 120 h, test rate of 12 ppm, sucrose solution under Parafilm, 5 days after infestation, read-out: mortality
Excerpt: Example B7: Activity Against Myzus persicae (Green Peach Aphid). Intrinsic Activity
Test compounds prepared from 10,000 ppm DMSO stock solutions were applied by pipette into 24-well microtiter plates and mixed with sucrose solution. The plates were closed with a stretched Parafilm. A plastic stencil with 24 holes was placed onto the plate and infested pea seedlings were placed directly on the Parafilm. The infested plate was closed with a gel blotting paper and another plastic stencil and then turned upside down. The samples were assessed for mortality 5 days after infestation.

CCS(=O)(=O)c1cc2c(nc1-c1nc3cc(C(F)(F)F)ncc3n1C)CC(C)(C)O2 [Compound A59, 6-ethylsulfonyl-2,2-dimethyl-5-[3-methyl-6-(trifluoromethyl)imidazo[4,5-c]pyridin-2-yl]-3H-furo[3,2-b]pyridine]
≥ 80%: percent effect (mortality or growth inhibition) at 200 ppm [1] | mortality at 200 ppm [2] | mortality at 200 ppm [3] | mortality at 200 ppm [4] | percent effect (mortality or growth inhibition) at 200 ppm [5] | mortality at 200 ppm [6] | mortality at 24 ppm [7] | percent effect (mortality, anti-feeding or growth inhibition) at 12.5 ppm [8] | percent effect (mortality or growth inhibition) at 200 ppm [9]

CCS(=O)(=O)c1cc2c(nc1-c1nc3cc(C(F)(F)F)ncc3n1C)nc(C(F)(F)F)n2C [Compound A33, 6-ethylsulfonyl-1-methyl-5-[3-methyl-6-(trifluoromethyl)imidazo[4,5-c]pyridin-2-yl]-2-(trifluoromethyl)imidazo[4,5-b]pyridine]
≥ 80%: percent effect (mortality or growth inhibition) at 200 ppm [1] | mortality at 200 ppm [2] | mortality at 200 ppm [3] | percent effect (mortality or growth inhibition) at 200 ppm [5] | mortality at 200 ppm [6] | mortality at 24 ppm [7] | percent effect (mortality or growth inhibition) at 200 ppm [9] | mortality at 200 ppm [10]

CCS(=O)(=O)c1cc2c(cc1-c1nc3cc(C(F)(F)F)ncc3n1C)nc(C(F)(F)F)n2C [Compound A9, 2-[6-ethylsulfonyl-1-methyl-2-(trifluoromethyl)benzimidazol-5-yl]-3-methyl-6-(trifluoromethyl)imidazo[4,5-c]pyridine]
≥ 80%: percent effect (mortality or growth inhibition) at 200 ppm [1] | mortality at 200 ppm [2] | mortality at 200 ppm [3] | mortality at 200 ppm [4] | pest or weed control at 200 ppm [11] | percent effect (mortality or growth inhibition) at 200 ppm [5] | mortality at 200 ppm [6] | mortality at 24 ppm [7] | percent effect (mortality, anti-feeding or growth inhibition) at 12.5 ppm [8] | percent effect (mortality or growth inhibition) at 200 ppm [9] | mortality at 200 ppm [10]

CCS(=O)(=O)c1cc2nc(C(F)(F)F)n(C)c2nc1-c1nc2cc(C(F)(F)F)ncc2n1C [Compound A32, 6-ethylsulfonyl-3-methyl-5-[3-methyl-6-(trifluoromethyl)imidazo[4,5-c]pyridin-2-yl]-2-(trifluoromethyl)imidazo[4,5-b]pyridine]
≥ 80%: percent effect (mortality or growth inhibition) at 200 ppm [1] | mortality at 200 ppm [2] | mortality at 200 ppm [3] | mortality at 200 ppm [4] | pest or weed control at 200 ppm [11] | percent effect (mortality or growth inhibition) at 200 ppm [5] | mortality at 200 ppm [6] | mortality at 24 ppm [7] | percent effect (mortality, anti-feeding or growth inhibition) at 12.5 ppm [8] | percent effect (mortality or growth inhibition) at 200 ppm [9]

CCS(=O)(=O)c1cc2nc(C(F)(F)F)[nH]c2cc1-c1nc2cc(C(F)(F)F)ncc2n1C [Compound A7, 2-[6-ethylsulfonyl-2-(trifluoromethyl)-3H-benzimidazol-5-yl]-3-methyl-6-(trifluoromethyl)imidazo[4,5-c]pyridine]
≥ 80%: mortality at 200 ppm [6] | mortality at 200 ppm [12]

CCS(=O)(=O)c1cc2c(C3CC3)cccc2nc1-c1nc2cc(C(F)(F)F)ncc2n1C [Compound A43, 5-cyclopropyl-3-ethylsulfonyl-2-[3-methyl-6-(trifluoromethyl)imidazo[4,5-c]pyridin-2-yl]quinoline]
≥ 80%: percent effect (mortality or growth inhibition) at 200 ppm [1] | mortality at 200 ppm [3] | percent effect (mortality or growth inhibition) at 200 ppm [5] | mortality at 200 ppm [6] | mortality at 200 ppm [12] | percent effect (mortality, anti-feeding or growth inhibition) at 12.5 ppm [8] | percent effect (mortality or growth inhibition) at 200 ppm [9]

CCS(=O)(=O)c1cc2ccccc2cc1-c1nc2cc(C(F)(F)F)ncc2n1C [Compound A24, 2-(3-ethylsulfonyl-2-naphthyl)-3-methyl-6-(trifluoromethyl)imidazo[4,5-c]pyridine]
≥ 80%: percent effect (mortality or growth inhibition) at 200 ppm [1] | mortality at 200 ppm [3] | pest or weed control at 200 ppm [11] | percent effect (mortality or growth inhibition) at 200 ppm [5] | mortality at 12 ppm [13] | mortality at 200 ppm [6] | mortality at 200 ppm [12] | percent effect (mortality, anti-feeding or growth inhibition) at 12.5 ppm [8] | percent effect (mortality or growth inhibition) at 200 ppm [9]

CCS(=O)(=O)c1cc2nc(C(F)(F)F)sc2cc1-c1nc2cc(C(F)(F)F)ncc2n1C [Compound A31, 5-ethylsulfonyl-6-[3-methyl-6-(trifluoromethyl)imidazo[4,5-c]pyridin-2-yl]-2-(trifluoromethyl)-1,3-benzothiazole]
≥ 80%: percent effect (mortality or growth inhibition) at 200 ppm [1] | mortality at 200 ppm [2] | mortality at 200 ppm [3] | pest or weed control at 200 ppm [11] | percent effect (mortality or growth inhibition) at 200 ppm [5] | mortality at 200 ppm [6] | percent effect (mortality, anti-feeding or growth inhibition) at 12.5 ppm [8] | percent effect (mortality or growth inhibition) at 200 ppm [9] | mortality at 200 ppm [10]
